From the NIST ThermoML archive (doi:10.1016/j.jct.2013.03.020)
Several values for one entry are separate records, joined by “and”; a condition that tells them apart may be missing. Identical values can stand only once. ± gives the expanded uncertainty stated by the source.

Conditions: Liquid, Closed cell (Static) method

SMILES	vapor or sublimation pressure (273.15 K) [kPa]	vapor or sublimation pressure (283.15 K) [kPa]	vapor or sublimation pressure (293.15 K) [kPa]	vapor or sublimation pressure (303.15 K) [kPa]	vapor or sublimation pressure (313.15 K) [kPa]	vapor or sublimation pressure (323.15 K) [kPa]	vapor or sublimation pressure (333.15 K) [kPa]	vapor or sublimation pressure (343.15 K)	vapor or sublimation pressure (353.15 K) [kPa]	vapor or sublimation pressure (363.15 K) [kPa]	other results
CN(C)CCO [2-(N,N-dimethylamino)ethanol]	0.142 ± 0.004	0.2979 ± 0.0068	0.59 ± 0.013	1.11 ± 0.024	1.993 ± 0.041	3.435 ± 0.071	5.705 ± 0.12	9.165 ± 0.19 kPa	14.29 ± 0.29	21.66 ± 0.44	vapor or sublimation pressure (273.86 K): 0.149 ± 0.0036 kPa; vapor or sublimation pressure (282.97 K): 0.2938 ± 0.0067 kPa and 0.2945 ± 0.0067 kPa; vapor or sublimation pressure (292.89 K): 0.5824 ± 0.013 kPa; vapor or sublimation pressure (292.91 K): 0.5823 ± 0.013 kPa and 0.5822 ± 0.013 kPa; vapor or sublimation pressure (302.89 K): 1.095 ± 0.024 kPa and 1.096 ± 0.024 kPa; vapor or sublimation pressure (312.86 K): 1.963 ± 0.041 kPa; vapor or sublimation pressure (323.03 K): 3.392 ± 0.07 kPa; vapor or sublimation pressure (333.06 K): 5.626 ± 0.11 kPa; vapor or sublimation pressure (343.05 K): 9.047 ± 0.19 kPa; vapor or sublimation pressure (353.04 K): 14.45 ± 0.3 kPa; vapor or sublimation pressure (363.1 K): 21.59 ± 0.43 kPa
CCN1CCOCC1 [4-ethylmorpholine]		0.5816 ± 0.013	1.083 ± 0.024	1.918 ± 0.04	3.253 ± 0.067	5.304 ± 0.11	8.353 ± 0.17	12.75 ± 0.26 kPa	18.92 ± 0.38	27.37 ± 0.56	vapor or sublimation pressure (283.98 K): 0.6293 ± 0.014 kPa; vapor or sublimation pressure (293.93 K): 1.142 ± 0.025 kPa; vapor or sublimation pressure (303.86 K): 1.985 ± 0.041 kPa and 1.989 ± 0.041 kPa; vapor or sublimation pressure (323.78 K): 5.303 ± 0.11 kPa; vapor or sublimation pressure (333.91 K): 8.702 ± 0.18 kPa; vapor or sublimation pressure (343.88 K): 13.07 ± 0.26 kPa; vapor or sublimation pressure (353.9 K): 18.88 ± 0.38 kPa; vapor or sublimation pressure (363.86 K): 28.78 ± 0.58 kPa
CC(C)N(C)C [N,N-dimethylisopropylamine]	6.65 ± 0.14	11.11 ± 0.22	17.77 ± 0.36	27.37 ± 0.55	40.76 ± 0.82	58.9 ± 1.2	82.89 ± 1.7				vapor or sublimation pressure (274.58 K): 7.183 ± 0.15 kPa and 7.185 ± 0.15 kPa and 7.197 ± 0.15 kPa; vapor or sublimation pressure (283.86 K): 11.39 ± 0.23 kPa; vapor or sublimation pressure (293.81 K): 18.3 ± 0.37 kPa and 18.39 ± 0.37 kPa; vapor or sublimation pressure (303.82 K): 28.18 ± 0.57 kPa; vapor or sublimation pressure (313.79 K): 41.76 ± 0.84 kPa and 41.79 ± 0.84 kPa and 41.8 ± 0.84 kPa; vapor or sublimation pressure (324.02 K): 60.66 ± 1.2 kPa and 60.72 ± 1.2 kPa; vapor or sublimation pressure (334.05 K): 85.36 ± 1.7 kPa [middle of 4 runs]
O [water]	0.5798 ± 0.013	1.183 ± 0.026	2.277 ± 0.047	4.165 ± 0.085	7.284 ± 0.15	12.23 ± 0.25	19.82 ± 0.4	31.09 ± 0.63 kPa and 30.82 ± 0.62 kPa	47.34 ± 0.95	70.22 ± 1.4	
